Results on two compounds are retold here after PubChem BioAssay AID1259407 (Chemical Carcinogenesis Research Information System (CCRIS), 2018).

Active and inactive are the calls of the source. The rule behind the calls is not given here.

The test system of the series is CCRIS mutagenicity, Ames/micronucleus/aberration tests. As to the kind of experiment: CCRIS mutagenicity studies.

Consider `COP(=S)(OC)SCn1nnc2ccccc2c1=O`, for which the mutagenic call (End Point: In vitro Chromosomal aberrations, Test System: Human lymphocytes, Metabolic Activation: None) is “inactive; negative; lymphocytes from 1 male and 1 female; azinphos-methyl purity 92.9%”; the mutagenic call (End Point: In vitro Chromosomal aberrations, Test System: Human lymphocytes, Metabolic Activation: Rat, liver, S-9) is “active; positive (structural and ploidy); lymphocytes from 1 male and 1 female; azinphos”; the mutagenic call (Test System: AMES SALMONELLA TYPHIMURIUM, Strain/Indicator: TA98, Metabolic Activation: HAMSTER, LIVER, S-9, AROCLOR 1254 (10%), Method: PREINCUBATION) was “inactive; negative”; the mutagenic call (Test System: AMES SALMONELLA TYPHIMURIUM, Strain/Indicator: TA98, Metabolic Activation: NONE, Method: PREINCUBATION) is “inactive; negative”; the mutagenic call (Test System: AMES SALMONELLA TYPHIMURIUM, Strain/Indicator: TA98, Metabolic Activation: RAT, LIVER, S-9, AROCLOR 1254 (10%), Method: PREINCUBATION) is “active; positive”; the mutagenic call (Test System: AMES SALMONELLA TYPHIMURIUM, Strain/Indicator: TA100, Metabolic Activation: HAMSTER, LIVER, S-9, AROCLOR 1254 (10%), Method: PREINCUBATION) was “inactive; negative”. The mutagenic call runs as follows: (Test System: AMES SALMONELLA TYPHIMURIUM, Strain/Indicator: TA100, Metabolic Activation: NONE, Method: PREINCUBATION) “inactive; negative”; (Test System: AMES SALMONELLA TYPHIMURIUM, Strain/Indicator: TA100, Metabolic Activation: RAT, LIVER, S-9, AROCLOR 1254 (10%), Method: PREINCUBATION) “inactive; negative”; (Test System: AMES SALMONELLA TYPHIMURIUM, Strain/Indicator: TA1535, Metabolic Activation: HAMSTER, LIVER, S-9, AROCLOR 1254 (10%), Method: PREINCUBATION) “inactive; negative”; (Test System: AMES SALMONELLA TYPHIMURIUM, Strain/Indicator: TA1535, Metabolic Activation: NONE, Method: PREINCUBATION) “inactive; negative”; (Test System: AMES SALMONELLA TYPHIMURIUM, Strain/Indicator: TA1535, Metabolic Activation: RAT, LIVER, S-9, AROCLOR 1254 (10%), Method: PREINCUBATION) “inactive; negative”; (Test System: AMES SALMONELLA TYPHIMURIUM, Strain/Indicator: TA1537, Metabolic Activation: HAMSTER, LIVER, S-9, AROCLOR 1254 (10%), Method: PREINCUBATION) “inactive; negative”. Further, the mutagenic call is, setting by setting: (Test System: AMES SALMONELLA TYPHIMURIUM, Strain/Indicator: TA1537, Metabolic Activation: NONE, Method: PREINCUBATION) “inactive; negative”; (Test System: AMES SALMONELLA TYPHIMURIUM, Strain/Indicator: TA1537, Metabolic Activation: RAT, LIVER, S-9, AROCLOR 1254 (10%), Method: PREINCUBATION) “inactive; negative”.

With `Cc1cnc2c(C)c(C)c3c(nc(N)n3C)c2n1`, the mutagenic call (Test System: AMES SALMONELLA TYPHIMURIUM, Strain/Indicator: TA98, Metabolic Activation: RAT, LIVER, S-9, AROCLOR 1254, Method: STANDARD PLATE) is “active; positive”.
